This note sets out measurements from patent publication US8623870B2, “Pyridazinone derivatives” (Merck Patent GmbH, priority 2009, dated 2014).

In assay [1] the target is T1, Met kinase (Homo sapiens, UniProt P08581). Description: Met kinase inhibition (cell). It is filed as cell-based.
Target sequence in this assay (P08581 25-1390): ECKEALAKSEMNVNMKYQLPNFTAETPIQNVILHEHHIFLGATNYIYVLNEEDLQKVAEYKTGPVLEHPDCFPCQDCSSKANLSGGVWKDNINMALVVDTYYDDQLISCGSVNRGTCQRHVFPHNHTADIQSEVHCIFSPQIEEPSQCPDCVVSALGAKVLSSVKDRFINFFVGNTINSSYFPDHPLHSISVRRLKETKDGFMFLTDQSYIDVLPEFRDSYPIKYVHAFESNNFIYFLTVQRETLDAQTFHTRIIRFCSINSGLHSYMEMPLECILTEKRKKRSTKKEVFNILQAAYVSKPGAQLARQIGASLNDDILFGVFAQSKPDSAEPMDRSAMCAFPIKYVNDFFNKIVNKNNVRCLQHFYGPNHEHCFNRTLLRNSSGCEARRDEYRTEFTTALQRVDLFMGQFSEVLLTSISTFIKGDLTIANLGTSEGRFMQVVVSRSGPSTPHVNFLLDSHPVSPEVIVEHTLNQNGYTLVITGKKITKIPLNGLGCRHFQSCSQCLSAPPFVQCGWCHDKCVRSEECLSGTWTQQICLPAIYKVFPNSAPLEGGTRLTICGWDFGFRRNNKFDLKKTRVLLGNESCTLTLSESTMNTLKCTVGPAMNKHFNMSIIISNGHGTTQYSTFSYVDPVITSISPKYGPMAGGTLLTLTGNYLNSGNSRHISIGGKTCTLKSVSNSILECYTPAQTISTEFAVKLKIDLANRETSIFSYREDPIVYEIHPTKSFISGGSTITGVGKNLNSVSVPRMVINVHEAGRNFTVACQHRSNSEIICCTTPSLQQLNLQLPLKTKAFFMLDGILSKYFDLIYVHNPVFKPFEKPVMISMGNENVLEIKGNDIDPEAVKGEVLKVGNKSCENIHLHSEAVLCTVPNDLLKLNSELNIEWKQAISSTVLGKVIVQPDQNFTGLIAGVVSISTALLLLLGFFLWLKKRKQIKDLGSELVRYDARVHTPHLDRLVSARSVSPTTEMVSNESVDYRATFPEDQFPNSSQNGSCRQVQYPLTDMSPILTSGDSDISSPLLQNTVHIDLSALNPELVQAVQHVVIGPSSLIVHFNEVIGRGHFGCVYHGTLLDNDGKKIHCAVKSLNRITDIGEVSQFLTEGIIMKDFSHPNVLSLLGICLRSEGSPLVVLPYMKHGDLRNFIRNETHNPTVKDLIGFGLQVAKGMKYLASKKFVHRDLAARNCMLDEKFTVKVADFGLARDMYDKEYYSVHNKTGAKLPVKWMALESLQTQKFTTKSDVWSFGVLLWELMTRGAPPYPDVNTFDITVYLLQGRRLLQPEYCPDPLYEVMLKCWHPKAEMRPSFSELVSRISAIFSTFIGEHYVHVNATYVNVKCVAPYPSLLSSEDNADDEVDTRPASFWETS
In assay [2] the target is T1, Met kinase. Description: Met kinase inhibition, flashplate method (enzyme). It is filed as biochemical. Also noted: 6His (N); purchased Upstate 14-526; host or cells: Sf21 insect cells (S. frugiperda), baculovirus. An excerpt:
According to the manufacturer's data (Met, active, upstate, catalogue No. 14-526), Met kinase is expressed for the purposes of protein production in insect cells (Sf21; S. frugiperda) and subsequent affinity-chromatographic purification as “N-terminal 6His-tagged” recombinant human protein in a baculovirus expression vector.
The test plates used are 96-well Flashplate® microtitre plates from Perkin Elmer (Cat. No. SMP200). The components of the kinase reaction described below are pipetted into the assay plate. The Met kinase and the substrate poly Ala-Glu-Lys-Tyr, (pAGLT, 6:2:5:1), are incubated for 3 hrs at room temperature with radioactively labelled ^33P-ATP in the presence and absence of test substances in a total volume of 100 μl. The reaction is terminated using 150 μl of a 60 mM EDTA solution. After incubation for a further 30 min at room temperature, the supernatants are filtered off with suction, and the wells are washed three times with 200 μl of 0.9% NaCl solution each time. The measurement of the bound radioactivity is carried out by means of a scintillation measuring instrument (Topcount NXT, Perkin-Elmer).
The full value used is the inhibitor-free kinase reaction. This should be approximately in the range 6000-9000 cpm. The pharmacological zero value used is staurosporin in a final concentration of 0.1 mM. The inhibitory values (IC50) are determined using the RS1_MTS program.
• 30 μl of assay buffer • 10 μl of substance to be tested in assay buffer with 10% of DMSO • 10 μl of ATP (final concentration 1 μM cold, 0.35 μCi of ^33P-ATP) • 50 μl of Met kinase/substrate mixture in assay buffer; • (10 ng of enzyme/well, 50 ng of pAGLT/well)
Assay Buffer: • 50 mM HEPES • 3 mM magnesium chloride • 3 μM sodium orthovanadate • 3 mM manganese(II) chloride • 1 mM dithiothreitol (DTT) • pH=7.5 (to be set using sodium hydroxide)
Stop Solution: • 60 mM Titriplex III (EDTA) • ^33P-ATP: Perkin-Elmer; • Met kinase: Upstate, Cat. No. 14-526, Stock 1 μg/10 μl; spec. activity 954 U/mg; • Poly-Ala-Glu-Lys-Tyr, 6:2:5:1: Sigma Cat. No. P1152 In-vivo Tests
Target sequence in this assay (P08581 974-1390 limits assumed): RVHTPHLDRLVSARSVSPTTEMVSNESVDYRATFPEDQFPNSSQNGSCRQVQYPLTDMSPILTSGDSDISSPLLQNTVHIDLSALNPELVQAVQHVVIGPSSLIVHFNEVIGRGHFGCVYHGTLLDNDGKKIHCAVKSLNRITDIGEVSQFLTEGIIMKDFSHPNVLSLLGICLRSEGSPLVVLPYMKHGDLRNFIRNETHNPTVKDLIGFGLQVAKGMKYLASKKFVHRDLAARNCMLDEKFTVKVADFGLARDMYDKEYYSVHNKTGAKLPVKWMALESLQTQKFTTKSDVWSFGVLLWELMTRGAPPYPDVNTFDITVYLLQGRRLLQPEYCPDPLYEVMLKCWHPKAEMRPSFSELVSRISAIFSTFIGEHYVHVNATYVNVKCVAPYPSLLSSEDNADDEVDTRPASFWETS

Broadly, the IC50 is the concentration needed to halve the response being measured. A high value points to lower potency. For `O=c1ccc(-c2cc(F)cc(F)c2)nn1Cc1cccc(-c2ncc(-c3cnn(C4CCNCC4)c3)o2)c1` [Compound A6, 6-(3,5-difluorophenyl)-2-{3-[5-(1-piperidin-4-yl-1H-pyrazol-4-yl)oxazol-2-yl]benzyl}-2H-pyridazin-3-one], the IC50 against Met kinase [1] and against Met kinase [2] was 1 to 100 nM each time.

For `O=c1ccc(-c2cccc(F)c2)nn1Cc1cccc(-c2ncc(-c3cnn(C4CCNCC4)c3)s2)c1` [Compound A2, 6-(3-fluorophenyl)-2-{3-[5-(1-piperidin-4-yl-1H-pyrazol-4-yl)thiazol-2-yl]benzyl}-2H-pyridazin-3-one], the IC50 on Met kinase [1] and at Met kinase [2] was 1 to 100 nM throughout.

With `Cn1cc(-c2nc(-c3cccc(Cn4nc(-c5cc(F)cc(F)c5)ccc4=O)c3)no2)cn1` [Compound A8, 6-(3,5-difluorophenyl)-2-{3-[5-(1-methyl-1H-pyrazol-4-yl)-1,2,4-oxadiazol-3-yl]benzyl}-2H-pyridazin-3-one], the IC50 on Met kinase [1] and at Met kinase [2] was 1 to 100 nM throughout.

Take `Cc1ccc(-c2nc(-c3cccc(Cn4nc(-c5cc(F)cc(F)c5)ccc4=O)c3)no2)cn1` [Compound A10, 6-(3,5-difluorophenyl)-2-{3-[5-(6-methylpyridin-3-yl)-1,2,4-oxadiazol-3-yl]-benzyl}-2H-pyridazin-3-one]: the IC50 on Met kinase [1] and at Met kinase [2] was 1 to 100 nM throughout.

At Met kinase [1], `O=c1ccc(-c2cc(F)cc(F)c2)nn1Cc1cccc(-c2noc(-c3ccco3)n2)c1` [Compound A9, 6-(3,5-difluorophenyl)-2-[3-(5-furan-2-yl-1,2,4-oxadiazol-3-yl)benzyl]-2H-pyridazin-3-one] showed an IC50 of 100 to 10000 nM.

Turning to `O=c1ccc(-c2cc(F)cc(F)c2)nn1Cc1cccc(-c2ncc(-c3cnn(C4CCNCC4)c3)s2)c1` [Compound A1, 6-(3,5-difluorophenyl)-2-{3-[5-(1-piperidin-4-yl-1H-pyrazol-4-yl)thiazol-2-yl]benzyl}-2H-pyridazin-3-one], the IC50 against Met kinase [1] and on Met kinase [2] was 1 to 100 nM each time.
